Assay results taken from ChEMBL document CHEMBL1133936, “The synthesis and tubulin binding activity of thiophene-based analogues of combretastatin A-4” (Bioorg Med Chem Lett, 2001).

Tests used:
[1] = biological target: Tubulin alpha chain (Sus scrofa) (UniProt P02550); experiment: Inhibition of [3H]colchicine binding to tubulin at a concentration of 5.0 uM
[2] = biological target: Tubulin alpha chain (Sus scrofa) (UniProt P02550); experiment: Inhibition of [3H]colchicine binding to tubulin at a concentration of 50 uM
CA46 = experiment: Cytotoxicity was determined by inhibition against the Burkitt lymphoma CA46 cell line; assay type: functional, cell-based; conditions: Homo sapiens
Tubulin alpha chain = Tubulin alpha chain (Sus scrofa, UniProt P02550); experiment: Compound was evaluated for inhibition of tubulin polymerization; assay type: functional
Tubulin alpha chain, sequence (P02550 whole entry, looked up): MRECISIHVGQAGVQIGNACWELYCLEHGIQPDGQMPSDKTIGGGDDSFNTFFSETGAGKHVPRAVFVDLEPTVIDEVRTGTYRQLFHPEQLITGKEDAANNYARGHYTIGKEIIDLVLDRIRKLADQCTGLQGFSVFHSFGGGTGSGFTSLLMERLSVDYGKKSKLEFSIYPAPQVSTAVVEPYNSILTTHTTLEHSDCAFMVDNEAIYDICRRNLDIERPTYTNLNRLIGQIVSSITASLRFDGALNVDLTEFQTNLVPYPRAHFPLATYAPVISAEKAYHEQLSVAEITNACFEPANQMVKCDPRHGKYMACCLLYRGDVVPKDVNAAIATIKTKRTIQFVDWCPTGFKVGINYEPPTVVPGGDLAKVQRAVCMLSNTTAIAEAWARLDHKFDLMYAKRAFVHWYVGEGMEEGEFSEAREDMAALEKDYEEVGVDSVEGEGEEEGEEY

MCF7 = experiment: Cytotoxicity was determined by inhibition of cell growth of MCF-7 human breast carcinoma cell; assay type: functional, cell-based

Tubulin alpha chain (Sus scrofa), sequence (P02550 whole entry, looked up): as above

| Structure (SMILES) | inhibition [1] [%] | inhibition [2] [%] | IC50 (CA46) [nM] | IC50 (Tubulin alpha chain) [µM] | IC50 (MCF7) [nM] |
| --- | --- | --- | --- | --- | --- |
| COc1ccc2c(C(=O)c3cc(OC)c(OC)c(OC)c3)c(-c3ccc(OC)c(O)c3)sc2c1 | 21 | – | – | – | – |
| COc1ccc2c(C(O)c3ccc(OC)c(O)c3)c(-c3cc(OC)c(OC)c(OC)c3)sc2c1 (configuration not stated) | 5 | 73 | > 1000 | 6.1 | – |
| COc1ccc(C2=C(c3cc(OC)c(OC)c(OC)c3)CCS2)cc1O | 64 | 88 | – | 3.6 | 390 |
| COc1ccc(-c2sccc2C(=O)c2cc(OC)c(OC)c(OC)c2)cc1O | 67 | – | – | 1 | 300 |
| COc1ccc(C(=O)c2ccsc2-c2cc(OC)c(OC)c(OC)c2)cc1O | – | – | – | > 40 | – |
| COc1ccc(C(O)c2ccsc2-c2cc(OC)c(OC)c(OC)c2)cc1O (configuration not stated) | 26 | 74 | – | 8.8 | 500 |
